Measured values from patent US8722850B2, “Self-assembling peptides and their use in the formation of hydrogels” (Universita' Degli Studi di Milano Bicocca, priority 2010, dated 2014).
“Also recorded” adds a separate entry of the source. Where a SMILES comes first, the peptide text is derived from it. The star is where a group is joined. Biotin = O=C1N[C@H]2[C@H](CS[C@H]2CCCCC(=O)*)N1

Legend:
[1] = system: human Neural Stem Cells (hNSCs); assay: Live/Dead cell imaging (calcein AM / ethidium homodimer); type: cell-based; conditions: cells cultured for 10 days
Protocol: In vitro tests were performed following a previously adopted methodology (5). Briefly, cells (at a concentration of 6×10^4 cells/cm^2) were seeded on the top-surface of each assembled scaffold previously assembled into 96 multiwells. Initially, cells were cultured with basal medium supplemented with βFGF (10 ng/ml), added to enhance neuronal progeny differentiation. At 3 days in vitro (DIV), βFGF medium was replaced with Leukemia Inhibitory Factor (LIF, Chemicon) (20 ng/ml) and Brain Derived Neurotrophic Factor (BDNF, Peprotech) (20 ng/ml). Fresh medium was added every three days. Positive and negative controls consisted of CULTREX-BME® substrate (R&D systems) (1:100 dilution in basal medium) and untreated bottom well surfaces respectively.
Live/Dead cell imaging (MolecularProbes) was obtained by incubating cells cultured for 10 days with a staining solution containing 2.0 μM calcein AM and 4.0 μM ethidium homodimer in PBS at 37° C. for 60 min and visualized by inverted fluorescence microscope (Zeiss).

[2] = system: spinal cord of rats; assay: In vivo toxicity / biocompatibility, injections into the spinal cord, 3 days; conditions: three days after injection, versus saline
Protocol: (§1) To test if the SAPs according to the present invention show any toxicity when used in vivo we assessed the tissue reaction to multiple injections of B24 into the spinal cord of rats. All procedures involving animals were performed according to EC guidelines (EC Council Directive 86/609, 1987), to the Italian legislation on animal is experimentation (Decreto L. vo 116/92) and to protocols approved by the Animal Care and Use Committee of the University of Milan-Bicocca (IACUC 37/07).
Female Sprague-Dawley rats weighting 200-250 gr (Charles River Laboratories) were divided into two groups: 1) animals receiving injections of saline solution (control group, n=3) and 2) animals treated with B24 (n=3). In the case of long term observations (1 month) similar injections of B24 were used (n=2). Rats were anesthetized with an intraperitoneal injection of ketamine (80 mg/kg) and xylazine (10 mg/kg). The spinal cord was exposed at the T9-T10 level, and, after laminectomy, animals were injected with B24 (1% aqueous solution) or saline solution using a Hamilton syringe held via a micromanipulator. The solutions were delivered at distances of 500 μm, and two injections of 0.5 μl each were made at each interval, for a total dose of 3 μl. After injection, the muscles were sutured and the skin was closed with wound clips. Rats were treated daily with analgesic (carprofen, 5 mg/kg) and antibiotic (enrofloxacin, 5 mg/kg). 3 days after surgery (for toxicity tests) or 1 month after surgery (nervous regeneration tests) animals were sacrificed by transcardial perfusion with 4% paraformaldehyde. Spinal cords were removed, embedded in OCT, frozen and sliced into 16 μm thick longitudinal sections. For immunofluorescence analysis slices were permeabilized and blocked with PBS/0.3% TritonX-100/10% Normal Goat Serum (NGS) for 1 hour at room temperature. […]

[3] = system: spinal cord of rats; assay: In vivo nervous regeneration test, spinal cord injections, 1 month; conditions: one month after injections
Protocol: as §1
Female Sprague-Dawley rats weighting 200-250 gr (Charles River Laboratories) were divided into two groups: 1) animals receiving injections of saline solution (control group, n=3) and 2) animals treated with B24 (n=3). In the case of long term observations (1 month) similar injections of B24 were used (n=2). Rats were anesthetized with an intraperitoneal injection of ketamine (80 mg/kg) and xylazine (10 mg/kg). The spinal cord was exposed at the T9-T10 level, and, after laminectomy, animals were injected with B24 (1% aqueous solution) or saline solution using a Hamilton syringe held via a micromanipulator. The solutions were delivered at distances of 500 μm, and two injections of 0.5 μl each were made at each interval, for a total dose of 3 μl. After injection, the muscles were sutured and the skin was closed with wound clips. […]

C[C@H](NC(=O)CNC(=O)CNC(=O)CNC(=O)CCCC[C@@H]1SC[C@@H]2NC(=O)N[C@@H]21)C(=O)N[C@@H](Cc1ccccc1)C(=O)N[C@@H](C)C(=O)N[C@@H](CO)C(=O)N[C@H](C(=O)N[C@@H](CCCCN)C(=O)N[C@H](C(N)=O)[C@@H](C)O)[C@@H](C)O [peptide B24] (Biotin-GGGAFASTKT-NH2)
live/dead cell imaging [1]: distributed throughout the gel top surface; also recorded: a layer of widely branched cells
apoptotic cells (Tunel) [2]: negligible number
infiltrated macrophages (CD68) [2]: negligible number
neurofilament H dephosphorilated (degenerating) nervous fibers [2]: equally present in saline-injected and in B24-treated animals
chronic inflammation in the spinal cord [3]: did not exert any chronic inflammation
